In patent US4698350A, “1-ethyl-6-fluoro-1,4-dihydro- 7-(2,6-dimethyl-4-pyridinyl)-4-oxo-3-quinolinecarboxylic acid and antibacterial use thereof” (Sterling Drug Inc., priority 1984, dated 1987):
Values after ≈ are worked out from the molar mass of the structure shown. Like-named read-outs stand apart in the source and are kept apart here.

What was measured:
A. actinomycetemcomitans = assay: Agar dilution MIC, anaerobic microorganisms; assay type: cell-based; settings: Aggregatibacter actinomycetemcomitans, 48 h
Procedure: (§1) 1. Maintenance. Prior to use, all strains were maintained in the lyophilized state. During the study, cultures were examined on blood agar basal medium supplemented with 5.0% (v/v) defibrinated rabbit blood. Culture transfer was accomplished weekly with all cultures being incubated in an anaerobic atmosphere (GasPak jar; BBL).
(§2) 2. Agar Medium. The basal test medium consisted of trypticase soy agar (40 g), yeast extract (1 g), glucose (2 g) and 960 ml of distilled water pH 7.2. [Mashimo et al., J. Clin. Micro. 17, 187-191 (1983)]. Subsequent to sterilization and cooling to 50° C., the medium was supplemented with 4% (v/v) defibrinated rabbit blood and 0.5 μg/ml menadione (Vitamin K3) The agent under evaluation was also added at this time to the concentration desired. Subsequent to pouring of the plates, they were permitted to dry at 4° C. for 24 hr.
(§3) 3. Determination of Agent MIC. The minimal inhibitory concentration (MIC) of the various test agents was determined using an agar dilution technique. Agents and appropriate reference compounds were added to achieve a series of concentrations ranging between 32 μg/ml and 0.007 μg/ml. The inocula were prepared from 96-hr. cultures grown on the maintenance medium. Subsequent to a purity evaluation, colonies were removed and suspended in trypticase soy broth supplemented with 5 μg/ml menadione and 2% lysed rabbit blood filtrate to achieve an OD650 of 0.1 (this corresponded to approximately 10^8 cells/ml). Cultures were inoculated aerobically on the modified trypticase soy blood agar plates by use of a Steer's replicator (which delivers about 10^5 cells per spot). The plates were allowed to dry for a time not exceeding 30 min. and then incubated at 37° C. under an atmosphere of […], 10% H2 and 5% CO2 maintained in an anaerobic chamber (Coy Manufacturing Co.) for 48 hr. The MIC was defined as the lowest concentration completely inhibiting growth.
(§4) Tetracycline stock solutions (1 mg/ml) were made subsequent to dissolution in water. Stock solutions (1 mg/ml) of the remaining test compounds were made subsequent to dissolution in 1/10 N NaOH.

A. viscosus = assay: Agar dilution MIC, anaerobic microorganisms; assay type: cell-based; settings: Actinomyces viscosus, 48 h
Procedure: as §1, §2, §3, §4

B. fragilis = assay: Agar dilution MIC, anaerobic microorganisms; assay type: cell-based; settings: Bacteroides fragilis, 48 h
Procedure: as §1, §2, §3, §4

B. gingivalis = assay: Agar dilution MIC, anaerobic microorganisms; assay type: cell-based; settings: Porphyromonas gingivalis, 48 h
Procedure: as §1, §2, §3, §4

B. intermedius = assay: Agar dilution MIC, anaerobic microorganisms; assay type: cell-based; settings: Prevotella intermedia, 48 h
Procedure: as §1, §2, §3, §4

B. melaninogenicus = assay: Agar dilution MIC, anaerobic microorganisms; assay type: cell-based; settings: 48 h
Procedure: as §1, §2, §3, §4

B. oralis = assay: Agar dilution MIC, anaerobic microorganisms; assay type: cell-based; settings: Hoylesella oralis, 48 h
Procedure: as §1, §2, §3, §4

Capnocytophaga suptigena = assay: Agar dilution MIC, anaerobic microorganisms; assay type: cell-based; settings: 48 h
Procedure: as §1, §2, §3, §4

Eikenella corrodens = assay: Agar dilution MIC, anaerobic microorganisms; assay type: cell-based; settings: 48 h
Procedure: as §1, §2, §3, §4

F. nucleatum = assay: Agar dilution MIC, anaerobic microorganisms; assay type: cell-based; settings: Fusobacterium nucleatum, 48 h
Procedure: as §1, §2, §3, §4

F. polymorphum = assay: Agar dilution MIC, anaerobic microorganisms; assay type: cell-based; settings: 48 h
Procedure: as §1, §2, §3, §4

periodontal diseases = settings: cited from earlier work; for usefulness in treating periodontal disease (in words): Genco 1981
Campylobacter sputorum = assay: Agar dilution MIC, anaerobic microorganisms; assay type: cell-based; settings: 48 h
Procedure: as §1, §2, §3, §4

Wolinella recta = assay: Agar dilution MIC, anaerobic microorganisms; assay type: cell-based; settings: Campylobacter rectus, 48 h
Procedure: as §1, §2, §3, §4

[1] = system: all thirteen of the target anaerobic microorganisms; assay: Antimicrobial activity against anaerobic microorganisms; assay type: cell-based
Procedure: as §1, §2, §3, §4

[2] = A. actinomycetemcomitans, read-out: MIC
[3] = B. melaninogenicus, read-out: MIC
[4] = Capnocytophaga suptigena, read-out: MIC

MIC (A. actinomycetemcomitans; [2]) [µg/mL]	MIC (A. viscosus; A. viscosus, read-out: MIC) [µg/mL]	MIC (B. fragilis; B. fragilis, read-out: MIC) [µg/mL]	MIC (B. gingivalis; B. gingivalis, read-out: MIC) [µg/mL]	MIC (B. intermedius; B. intermedius, read-out: MIC) [µg/mL]	MIC (B. melaninogenicus; [3]) [µg/mL]	MIC (B. oralis; B. oralis, read-out: MIC) [µg/mL]	MIC (Campylobacter sputorum) [µg/mL]	MIC (Capnocytophaga suptigena; [4]) [µg/mL]	MIC (Eikenella corrodens; read-out: MIC) [µg/mL]	MIC (F. nucleatum; F. nucleatum, read-out: MIC) [µg/mL]	MIC (F. polymorphum; F. polymorphum, read-out: MIC) [µg/mL]	MIC (Wolinella recta) [µg/mL]	SMILES	usefulness in treating periodontal disease (in words) (periodontal diseases)	activity against microorganisms considered to participate in periodontal disease (in words) (periodontal diseases)	antimicrobial activity (in words) [1]	also measured
0.06 (≈ 0.18 µM)	> 10	8 (≈ 24 µM)	4 (≈ 12 µM)	0.5 (≈ 1.5 µM)	4 (≈ 12 µM)	4 (≈ 12 µM)	4 (≈ 12 µM)	0.25 (≈ 0.75 µM)	4 (≈ 12 µM)	8 (≈ 24 µM)	8 (≈ 24 µM)	0.25 (≈ 0.75 µM)	CCn1cc(C(=O)O)c(=O)c2cc(F)c(N3CCN(C)CC3)cc21 [50,150, 1-ethyl-6-fluoro-1,4-dihydro-7-(4-methyl-1-piperazinyl)-4-oxo-3-quinolinecarboxylic acid]			less active	
0.06 (≈ 0.188 µM)	> 10	> 10	4 (≈ 12.5 µM)	0.5 (≈ 1.57 µM)	4 (≈ 12.5 µM)	4 (≈ 12.5 µM)	2 (≈ 6.26 µM)	0.5 (≈ 1.57 µM)	4 (≈ 12.5 µM)	8 (≈ 25.1 µM)	> 10	0.12 (≈ 0.376 µM)	CCn1cc(C(=O)O)c(=O)c2cc(F)c(N3CCNCC3)cc21 [50,297, 1-ethyl-6-fluoro-1,4-dihydro-4-oxo-7-(1-piperazinyl)-3-quinolinecarboxylicacid]			less active	

The next lines start with the molecule.

SMILES	MIC (A. actinomycetemcomitans; [2]) [µg/mL]	MIC (A. viscosus; A. viscosus, read-out: MIC) [µg/mL]	MIC (B. fragilis; B. fragilis, read-out: MIC) [µg/mL]	MIC (B. gingivalis; B. gingivalis, read-out: MIC) [µg/mL]	MIC (B. intermedius; B. intermedius, read-out: MIC) [µg/mL]	MIC (B. melaninogenicus; [3]) [µg/mL]	MIC (B. oralis; B. oralis, read-out: MIC) [µg/mL]	MIC (Campylobacter sputorum) [µg/mL]	MIC (Capnocytophaga suptigena; [4]) [µg/mL]	MIC (Eikenella corrodens; read-out: MIC) [µg/mL]	MIC (F. nucleatum; F. nucleatum, read-out: MIC) [µg/mL]	MIC (F. polymorphum; F. polymorphum, read-out: MIC) [µg/mL]	MIC (Wolinella recta) [µg/mL]	usefulness in treating periodontal disease (in words) (periodontal diseases)	activity against microorganisms considered to participate in periodontal disease (in words) (periodontal diseases)	antimicrobial activity (in words) [1]	also measured
CN(C)C1C(=O)C(C(N)=O)=C(O)C2(O)C(=O)C3=C(O)c4c(O)cccc4C(C)(O)C3CC12 (centres unmarked) [9,424]														particularly useful	not active against all the microorganisms		MIC (A. actinomycetemcomitans): 1 µg/mL (≈ 2.25 µM); MIC (A. viscosus): 2 µg/mL (≈ 4.5 µM); MIC (B. fragilis): 1 µg/mL (≈ 2.25 µM); MIC (B. gingivalis): 0.12 µg/mL (≈ 0.27 µM); MIC (B. intermedius): 2 µg/mL (≈ 4.5 µM); MIC (B. melaninogenicus): 0.5 µg/mL (≈ 1.13 µM); MIC (B. oralis): 0.12 µg/mL (≈ 0.27 µM); MIC (Capnocytophaga suptigena; Capnocytophaga): 1 µg/mL (≈ 2.25 µM); MIC (Eikenella corrodens): 2 µg/mL (≈ 4.5 µM); MIC (F. nucleatum): 0.75 µg/mL (≈ 1.69 µM); MIC (F. polymorphum): 0.12 µg/mL (≈ 0.27 µM)
CCn1cc(C(=O)O)c(=O)c2ccc(-c3ccncc3)cc21 [35,213, 1-ethyl-1,4-dihydro-4-oxo-7-(4-pyridinyl)-3-quinolinecarboxylic acid]	0.12 (≈ 0.408 µM)	> 10	> 10	> 10	0.5 (≈ 1.7 µM)	8 (≈ 27.2 µM)	> 10	> 10	1 (≈ 3.4 µM)	8 (≈ 27.2 µM)	> 10	> 10	0.5 (≈ 1.7 µM)				
Cc1ncc([N+](=O)[O-])n1CCO [metronidazole]														particularly useful	not active against all the microorganisms		
